Reference: patent US11732029B2, “Methods and compositions for the treatment of wounds” (The University of Chicago, priority 2017, dated 2023)
“Also recorded” adds a separate entry of the source.

B1: vWF A2: recombinant human vWF A2 domain (R & D systems) (protein)
chain: DVAFVLEGSDKIGEADFNRSKEFMEEVIQRMDVGQDSIHVTVLQYSYMVTVEYPFSEAQSKGDILQRVREIRYQGGNRTNTGLALRYLSDHSFLVSQGDREQAPNLVYMVTGNPASDEIKRLPGDIQVVPIGVGPNANVQELERIGWPNAPILIQDFETLPREAPDLV

Columns and labels:
[1] = Heparin binding to synthesized laminin peptides (ELISA); parameters: key to Interaction with Heparin: ++ indicates high affinities; + indicates medium/low affinities; conditions: for binding to heparin: ELISA, peptide-coated plate, 10 μg/mL biotinylated heparin; for Interaction with Heparin: summary Table 2
Experimental: (§1) ELISA tests were performed as described above. In brief, ELISA plates were coated with 1 μg/mL of laminin alpha 3 LG domain recombinant protein, laminin alpha 4 LG domain recombinant protein (R&D systems), laminin alpha 5 LG domain recombinant protein (LD BioPharma), or laminin peptide (sequences are described in Table 1, chemically synthesized by Genscript) in PBS for 2 hrs at 37° C. 1 μg/mL of BSA served as non-binding protein control. After blocking with 2% BSA PBS-0.05% Tween 20 (PBS-T) solution, 1 μg/mL of the recombinant human proteins (VEGF-A121, VEGF-A165, PlGF-1, PlGF-2, PDGF-BB or FGF-2) or 10 μg/mL of biotinylated heparin (Sigma-Aldrich) were added. Bound GF was detected with biotinylated antibodies for human VEGF, PlGF, PDGF-BB, or FGF-2 (R&D Systems). The antibodies were detected by streptavidin-HRP (R&D Systems).

HUVEC = experiment: Cell adhesion assay, HUVEC on laminin peptide coated plates; format: cell-based, human; parameters: key to Cell adhesion HUVECs: ++ indicates high affinities; + indicates medium/low affinities; conditions: for HUVEC attachment: peptide-coated plates, 30 min at 37° C., without EDTA; for Cell adhesion HUVECs: summary Table 2
Experimental: (§2) 96-well plates (non-tissue culture treated, Greiner Bio-one) were pre-coated with 1 μg/mL with laminin HBD peptides in PBS for 2 hrs at 37° C., followed by blocking with 2% BSA PBS for 1 h at RT. Cell adhesion assays were performed using human lung fibroblasts (Lonza) in FGM-2 medium (Lonza) or human umbilical vein endothelial cells (HUVEC; Lonza) in EGM-2 medium (Lonza) supplemented with 1% fetal bovine serum (FBS) and […] VEGF-A165, with or without 5 mM EDTA (Sigma-Aldrich). Cells were plated at 3000 cells/well on laminin peptide pre-coated plates and incubated for 30 min at 37° C., 5% CO2. Then, the medium was removed, and wells were quickly washed three times with PBS. Cell numbers were quantified using a CyQUANT assay, according to the manufacturer's instructions (Invitrogen). All cell lines were checked for mycoplasma contamination and used in passages from 5 to 8.

human lung fibroblasts = experiment: Cell adhesion assay, fibroblasts on laminin peptide coated plates; format: cell-based; parameters: key to Cell adhesion Fibroblasts: ++ indicates high affinities; + indicates medium/low affinities; conditions: for fibroblast attachment: peptide-coated plates, 30 min at 37° C., without EDTA; for Cell adhesion Fibroblasts: summary Table 2
Experimental: as §2

GFs = experiment: GF binding to synthesized laminin peptides (ELISA), all tested GFs together; parameters: species or system human; key to Interaction with GFs: ++ indicates high affinities; + indicates medium/low affinities; conditions: for Interaction with GFs: summary Table 2; for binding to the tested GFs: ELISA, statement for all tested GFs (VEGF-A, PlGF, PDGF-BB, FGF-2)
Experimental: as §1

[2] = test system: syndecan-1, syndecan-2, syndecan-3, syndecan-4; experiment: Recombinant syndecan binding to synthesized laminin HBD peptides (ELISA); parameters: species or system human; key to Interaction with Syndecans: ++ indicates high affinities; + indicates medium/low affinities; conditions: for binding to recombinant syndecans (syndecan 1-4): ELISA, peptide-coated plate, 1 μg/mL syndecan; for Interaction with Syndecans: summary Table 2
Experimental: ELISA tests were performed as described above. In brief, ELISA plates were coated with 1 μg/mL laminin peptide (sequences are described in Table 1, chemically synthesized by Genscript) in PBS for 2 hrs at 37° C. 1 μg/mL of BSA served as non-binding protein control. After blocking with 2% BSA PBS-T solution, 1 μg/mL of the recombinant human syndecan-1, syndecan-2, syndecan-3, syndecan-4 (all syndecan proteins are histidine-tagged; SinoBiological) were added. Bound GF was detected with anti-histidine tag antibody (1:1000 dilution, BioLegend).

PDGF-BB = biological target: T1, PDGF-BB (Homo sapiens, UniProt P01127); experiment: GF binding to recombinant laminin LG domain protein and synthesized laminin HBD peptides (ELISA); conditions: plate coated with LG domain protein or peptide, 1 μg/mL GF, vs BSA-coated wells
T1 construct: All growth factors (GFs) and chemokines were purchased in their mature forms; purchased PeproTech; host or cells: Escherichia coli
T1 sequence (P01127 82-190 limits assumed): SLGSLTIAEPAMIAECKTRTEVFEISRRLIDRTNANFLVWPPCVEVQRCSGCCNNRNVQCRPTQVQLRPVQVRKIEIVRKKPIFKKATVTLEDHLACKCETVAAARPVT
Experimental: as §1

FGF-2 = FGF-2 (Homo sapiens, UniProt P09038); experiment: as above; parameters: All growth factors (GFs) and chemokines were purchased in their mature forms; purchased PeproTech; host or cells: Escherichia coli; conditions: plate coated with LG domain protein or peptide, 1 μg/mL GF, vs BSA-coated wells
Chain of FGF-2 (P09038 143-288): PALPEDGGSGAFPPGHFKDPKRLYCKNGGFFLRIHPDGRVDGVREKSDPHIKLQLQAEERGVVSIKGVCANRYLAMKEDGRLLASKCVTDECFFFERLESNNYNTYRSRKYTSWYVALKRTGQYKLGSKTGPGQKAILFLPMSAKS
Experimental: as §1

PlGF-2 = biological target: T2, PlGF-2 (Homo sapiens, UniProt P49763); experiment: as above; parameters: All growth factors (GFs) and chemokines were purchased in their mature forms; purchased PeproTech; host or cells: Escherichia coli; conditions: plate coated with LG domain protein or peptide, 1 μg/mL GF, vs BSA-coated wells
T2 sequence (P49763 19-170 isoform P49763-3 limits assumed): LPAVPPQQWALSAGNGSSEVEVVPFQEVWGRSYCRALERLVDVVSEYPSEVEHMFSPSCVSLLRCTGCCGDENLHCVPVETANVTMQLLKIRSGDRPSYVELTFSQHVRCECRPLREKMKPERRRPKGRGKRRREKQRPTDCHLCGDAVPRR
Experimental: as §1

VEGF-A165 [3] = biological target: T3, VEGF-A165 (Homo sapiens, UniProt P15692); experiment: as above; conditions: plate coated with LG domain protein or peptide, 1 μg/mL GF, vs BSA-coated wells
T3 construct: All growth factors (GFs) and chemokines were purchased in their mature forms; purchased PeproTech; host or cells: Escherichia coli
T3 sequence (P15692 27-191 isoform P15692-4 limits assumed): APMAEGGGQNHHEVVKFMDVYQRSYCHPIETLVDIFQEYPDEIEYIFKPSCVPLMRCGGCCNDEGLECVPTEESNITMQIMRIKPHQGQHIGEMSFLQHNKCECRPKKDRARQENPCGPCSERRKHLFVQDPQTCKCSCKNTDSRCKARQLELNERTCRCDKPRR
Experimental: as §1

VEGF-A165 [4] = biological target: T3, VEGF-A165; experiment: vWF binding to recombinant VEGF-A isoforms (ELISA); conditions: plate coated with 50 nM vWF domains, 1 μg/mL VEGF-A, vs BSA
Experimental: (§3) ELISA was performed as previously reported1. In brief, ELISA plates (med binding: Greiner Bio-One) were coated with 50 nM BSA (GE Healthcare), pro-peptide containing recombinant vWF (Sino Biological), plasma-derived vWF (EMD Millipore), recombinant human vWF A1 domain (U-Protein Express), recombinant human vWF A2 domain (R & D systems), recombinant human vWF A3 domain (U-Protein Express), vWF A1 HBD peptide or scrambled/mutated HBD peptide (all peptides were synthesized by Genscript). After blocking with 2% BSA solution containing PBS-T, 1 μg/mL of recombinant human VEGF-A121 (PeproTech), recombinant human VEGF-A145 (R & D Systems), or recombinant human VEGF-A165 (PeproTech) was added. Bound VEGF-A was detected with 1 μg/mL of mouse anti-human VEGF-A antibody (clone: 26503, R & D systems). After 60 min of incubation, horseradish peroxidase (HRP) conjugated goat anti-mouse antibody (1:2000 dilution, Dako) was added and incubated for another 60 min. Color development and the absorbance measurement were done as described above.

VEGF-A145 = biological target: T4, VEGF-A145 (Homo sapiens, UniProt P15692); experiment: vWF binding to recombinant VEGF-A isoforms (ELISA); conditions: plate coated with 50 nM vWF domains, 1 μg/mL VEGF-A, vs BSA
T4 construct: All GFs and chemokines were purchased in their mature forms; purchased R & D Systems
T4 sequence (P15692 27-171 isoform P15692-6 limits assumed): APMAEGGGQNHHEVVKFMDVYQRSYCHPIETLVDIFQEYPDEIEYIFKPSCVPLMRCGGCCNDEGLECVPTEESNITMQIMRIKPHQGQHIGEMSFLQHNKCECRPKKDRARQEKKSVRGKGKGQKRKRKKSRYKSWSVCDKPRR
Experimental: as §3

Row | Molecule | binding to heparin [1] | Interaction with Heparin [1] | HUVEC attachment (HUVEC) | Cell adhesion HUVECs (HUVEC) | fibroblast attachment (human lung fibroblasts) | Cell adhesion Fibroblasts (human lung fibroblasts) | Interaction with GFs (GFs) | binding to recombinant syndecans (syndecan 1-4) [2] | Interaction with Syndecans [2] | binding to PDGF-BB (PDGF-BB) | binding to FGF-2 (FGF-2) | binding to PlGF-2 (PlGF-2) | binding to VEGF-A165 (VEGF-A165 [3]) | binding to VEGF-A165 (VEGF-A165 [4]) | binding to VEGF-A145 (VEGF-A145) | binding to the tested GFs (GFs)
1 | TLFLAHGRLVYMFNVGHKKLKIR [α41521-1543, laminin α4 chain LG4-derived peptide, 23 aa] | bound to heparin | ++ | promoted HUVEC attachment | + | enhancement of fibroblast attachment | + | + | significant binding | ++ | not statistically significant | – | – | – | – | – | –
2 | PLFLLHKKGKNLSKPKASQNKKGGKSK [α41408-1434, laminin α4 chain linker peptide, 27 aa] | bound to heparin | ++ | – | – | – | – | ++ | significant binding | ++ | bound | bound | bound | bound | – | – | –
3 | TPGLGPRGLQATARKASRRSRQPARHPACML [α53300-3330, laminin α5 chain linker peptide, 31 aa] | bound to heparin | ++ | – | – | – | – | + | significant binding | ++ | – | – | preferentially bound | preferentially bound | – | – | –
4 | RQRSRPGRWHKVSVRWEKNR [α53417-3436, laminin α5 chain LG4-derived peptide, 20 aa] | bound to heparin | ++ | – | – | enhancement of fibroblast attachment | + | ++ | significant binding | ++ | bound | bound | bound | bound | – | – | –
5 | KNSFMALYLSKGR [α33031-3043, laminin α3 chain LG4-derived peptide, 13 aa] | non-heparin binding | – | – | – | enhancement of fibroblast attachment | + | + | weak binding | + | – | – | – | bound | – | – | –
6 | A3: recombinant human vWF A3 domain (U-Protein Express) | – | – | – | – | – | – | – | – | – | – | – | – | – | no binding | no binding | –
7 | TLPDVGLELEVR [α53539-3550, laminin α5 chain LG5-derived peptide, 12 aa] | did not show binding to heparin; also recorded: non-heparin binding | – | – | – | – | – | + | did not show binding | – | – | – | – | – | – | – | significantly bound to all tested GFs
8 | ARKASRRSRQPARH [α53312-3325, laminin α5 chain linker peptide, 14 aa] | did not bind to heparin | – | – | – | – | – | – | weak binding | + | – | – | – | – | – | – | did not show particular binding to any tested GF
9 | PPFLMLLKGSTRFNKTKTFR [α32932-2951, laminin α3 chain LG3-LG4 linker peptide, 20 aa] | bound to heparin | ++ | promoted HUVEC attachment | + | enhancement of fibroblast attachment | + | + | weak binding | + | – | preferentially bound | – | preferentially bound | – | – | –
10 | pro-peptide-containing recombinant vWF: immature, pro-peptide containing recombinant vWF (Sino Biological) | – | – | – | – | – | – | – | – | – | – | – | – | – | bind | – | –
11 | B1 | – | – | – | – | – | – | – | – | – | – | – | – | – | no binding | no binding | –
